Drawing on the Deep4Chem optical property database, this text covers photoluminescence quantum yield for 41 compounds.

The nature of this data set: photoluminescence quantum yield (fraction); solvent given as SMILES.

The structures appear in SMILES notation.

`Cc1cc(C)c(B2c3cc(C(C)(C)C)ccc3-c3cccc4cc(C(C)(C)C)cc2c34)c(C)c1` came in with a photoluminescence quantum yield (in C1CCCCC1) of 0.8.

In the case of `CCCCCCN1C(=O)c2cccc3c(-c4ccc(-c5cc(-c6ccc(C)cc6)nn5-c5ccccc5)s4)ccc(c23)C1=O`, where the note is “in ClCCl”, the photoluminescence quantum yield was 0.18.

Take `CCC1(CC)c2cc(Br)ccc2-c2c1c1c(c3c2C(CC)(CC)c2cc(-c4cccs4)ccc2-3)C(CC)(CC)c2cc(Br)ccc2-1`: under “in C1CCOC1”, the photoluminescence quantum yield was 0.32.

`c1ccc(-c2nc3ccccc3nc2-c2ccc(-n3c4ccccc4c4ccccc43)cc2)cc1` gave a photoluminescence quantum yield (in Cc1ccccc1) of 0.32.

As for `CCOC(=O)c1ccc2c(c1)[nH]c1c3ccc(C(=O)OCC)cc3[se]c21`, the photoluminescence quantum yield (in CCCO) came out at 0.017.

For `COc1ccc(-c2ccc(OC)cc2)cc1`, the photoluminescence quantum yield (in C1CCCCC1) worked out at 0.31.

With `c1ccc(-c2nn(-c3ccccc3)c3nc4ccc(N(c5ccccc5)c5ccccc5)cc4cc23)cc1`, the photoluminescence quantum yield by setting is: (in C1CCCCC1) 0.76; (in C1CCOC1) 0.7; (in CC#N) 0.46; (in CC(C)=O) 0.59; (in CCCCCl) 0.7; (in CCCCOCCCC) 0.76. Under “in CN(C)C=O”, the photoluminescence quantum yield is 0.5.

As for `CCCCCCN(CCCCCC)c1ccc(C#Cc2ccc(C#N)cc2)cc1`, the photoluminescence quantum yield worked out at 0.005 (in CC#N), 0.015 (in CO) and 0.37 (in ClCCl).

On to `F[B-]1(F)n2c(c3cccc4cccc2c43)=Nc2cccc(Cl)[n+]21`, for which the photoluminescence quantum yield was found to be 0.99 (in C1CCOC1); 0.99 (in CC#N); 0.99 (in CCCCCC); 0.99 (in Cc1ccccc1); 0.99 (in ClCCl).

Take `CC[Si](CC)(CC)c1cc2ccc3cccc4ccc(c1C(=O)NC(C)(C)C)c2c34`: the photoluminescence quantum yield (in ClC(Cl)Cl) came to 0.162.

`COc1ccc(-c2cc3c(ccc4sc(/C=C/c5cccs5)cc43)s2)cc1` gave a photoluminescence quantum yield (in ClCCl) of 0.28.

`COC(=O)C(NC(=O)OC(C)(C)C)c1ccc2oc(-c3ccc(N(C)C)cc3OC)nc2c1` (configuration not stated): the photoluminescence quantum yield is, setting by setting: (in CC1CCCCC1) 0.44; (in CC#N) 0.88; (in CO) 0.97.

As to `CCCN1c2ccccc2Sc2cc(/C=C\c3cc(=O)oc4cc(NC(=O)OCC)ccc34)ccc21`, the photoluminescence quantum yield (in ClC(Cl)Cl) came out at 0.62.

Regarding `CCN(CC)c1ccc2ccc(=O)oc2c1`, the photoluminescence quantum yield (in CC(C)=O) amounted to 0.55; the photoluminescence quantum yield (in CCCCCC) worked out at 0.85; the photoluminescence quantum yield (in CCCCCCC) worked out at 0.85; the photoluminescence quantum yield (in CCCCO) amounted to 0.47; the photoluminescence quantum yield (in CCCO) was 0.52; the photoluminescence quantum yield (in CCO) is 0.39. Moreover, the photoluminescence quantum yield came to 0.8 (in CCOCC); 0.56 (in CN(C)C=O); 0.27 (in CO); 0.83 (in Cc1ccccc1); 0.62 (in ClC(Cl)Cl); 0.9 (in ClCCl). For the same compound, the photoluminescence quantum yield reads like this: (in OCCO) 0.25; (in c1ccccc1) 0.83.

`CCN(CC)c1ccc2cc(-c3cc(SC)c(C#N)c(=O)o3)c(=O)oc2c1`: the photoluminescence quantum yield by setting is: (in C1CCOC1) 0.72; (in CC#N) 0.56; (in CC(C)=O) 0.67; (in CCOC(C)=O) 0.8; (in CN(C)C=O) 0.4; (in CO) 0.55. The photoluminescence quantum yield is, setting by setting: (in CS(C)=O) 0.55; (in Cc1ccccc1) 0.72; (in ClC(Cl)Cl) 0.66; (in ClCCl) 0.81.

For `c1ccc(C2=C(c3ccccn3)[Si](c3ccccc3)(c3ccccc3)c3ccccc32)cc1`, the photoluminescence quantum yield (in ClCCl) turned out to be 0.004.

As to `Cc1ccc2nc3c(nc2c1)c(-c1ccccc1)nn3C`, the photoluminescence quantum yield came out at 0.29 (in C1CCCCC1), 0.47 (in C1CCOC1) and 0.31 (in CC#N).

For the compound `c1ccc2c(c1)Oc1ccccc1N2c1ccc2c(c1)c1ccccc1n1c3ccccc3nc21`, the photoluminescence quantum yield (in O=P(c1ccccc1)(c1ccccc1)c1ccccc1Oc1ccccc1P(=O)(c1ccccc1)c1ccccc1) was 0.8.

For `Cc1ccc(-n2c3ccccc3c3cc(C=C(C#N)C#N)ccc32)cc1`, the photoluminescence quantum yield worked out at 0.12 (in C1CCOC1); 0.04 (in CC#N); 0.05 (in CC(C)=O); 0.09 (in CCOC(C)=O); 0.03 (in CO); 0.04 (in CS(C)=O). In addition, the photoluminescence quantum yield is 0.11 (in Cc1ccccc1) and 0.08 (in ClC(Cl)Cl).

On to `FC(F)(F)c1ccc(/C=C/c2nc3c(ccc4ccccc43)s2)cc1`, for which the photoluminescence quantum yield was found to be 0.14 (in C1CCCCC1) and 0.14 (in CC#N).

As to `CC1=CC(c2ccc3cc(N(C)C)ccc3c2)=[O+][B-](F)(F)O1`, the photoluminescence quantum yield runs as follows: (in C1CCOC1) 0.91; (in CC#N) 0.14; (in CC(C)=O) 0.53; (in CS(C)=O) 0.22; (in Cc1ccccc1) 0.93; (in ClC(Cl)Cl) 0.97. The photoluminescence quantum yield (in ClCCl) amounted to 0.99.

In the case of `O=c1oc2ccccc2cc1-c1ccc([N+](=O)[O-])cc1`, the photoluminescence quantum yield by setting is: (in C1CCOC1) 0.006; (in CC#N) 0.0022; (in CS(C)=O) 0.0013; (in ClC(Cl)Cl) 0.013.

With `CCN(CC)c1ccc2cc(C#N)/c(=N\C(=O)C(C)C)oc2c1`, the photoluminescence quantum yield turned out to be 0.047 (in CCO) and 0.83 (in ClCCl).

As to `CC1=C2C=CC(c3ccccc3)=[N+]2[B-](F)(F)n2c1ccc2-c1ccccc1`, the photoluminescence quantum yield (in ClCCl) worked out at 0.64.

The compound `COc1ccc(-c2ccc(C(=O)NC(C)(C)C)c3c2ccc2c4ccccc4c4ccccc4c23)cc1` came in with a photoluminescence quantum yield (in ClCCl) of 0.21.

For the compound `CCN(CC)c1ccc2c(c1)oc(=O)c1c(C)nc3c(c(C)nn3-c3ccccc3)c12`, the photoluminescence quantum yield (in C1CCCCC1) was 0.852; the photoluminescence quantum yield (in CCOC(C)=O) was 0.733; the photoluminescence quantum yield (in CN(C)C=O) is 0.562; the photoluminescence quantum yield (in CO) is 0.428; the photoluminescence quantum yield (in ClCCl) worked out at 0.827.

`Cc1cc(C)c(B(c2cc(-c3ccc(C(F)(F)F)cc3)sc2-c2sc(-c3ccc(C(F)(F)F)cc3)cc2P(=O)(c2ccccc2)c2ccccc2)c2c(C)cc(C)cc2C)c(C)c1` showed a photoluminescence quantum yield (in CO) of 0.41.

Consider `COc1ccc2c3c(cccc13)C(=O)c1ccccc1-2`, for which the photoluminescence quantum yield was 0.62 (in CC#N); 0.56 (in CC(C)=O); 0.54 (in CC(C)O); 0.01 (in CCCCOCCCC); 0.23 (in CCOC(C)=O); 0.05 (in CCOCC). Also, the photoluminescence quantum yield (in CO) worked out at 0.45; the photoluminescence quantum yield (in Cc1ccccc1) was 0.1; the photoluminescence quantum yield (in Clc1ccccc1) was found to be 0.41; the photoluminescence quantum yield (in N#Cc1ccccc1) was found to be 0.69; the photoluminescence quantum yield (in O=C1CCCCC1) came out at 0.57.

The compound `N#Cc1ccc(/C=C/C=C/C2=NC3C(=O)NC(N)=NC3N2[C@H]2C[C@H](O)[C@@H](CO)O2)cc1` (some centres not stated) showed a photoluminescence quantum yield (in C1COCCO1) of 0.75, a photoluminescence quantum yield (in CC#N) of 0.47 and a photoluminescence quantum yield (in CO) of 0.32.

As for `C(=C\c1ccc(-c2nnc(-c3ccccc3)o2)cc1)/c1ccc(-c2nnc(-c3ccccc3)o2)cc1`, for the setting “in CN(C)C=O”, the photoluminescence quantum yield is 0.8.

In the case of `Cc1ccc(C2=[N+]3C(=Cc4ccc(C)n4[B-]3(F)F)c3ccccc32)[nH]1`, the photoluminescence quantum yield is 0.81 (in C1CCOC1); 0.8 (in CC#N); 0.83 (in CCCCCC); 0.83 (in CO); 0.78 (in Cc1ccccc1); 0.79 (in ClCCl).

`C(S/C=C/c1ccc(-c2ccc(/C=C/SC=C3CCCCCC3)cc2)cc1)=C1CCCCCC1` returned a photoluminescence quantum yield (in ClCCl) of 0.176.

`COc1ccc(-c2cc3c(cc2OC)-c2c(c4c(c5c2-c2cc(OC)c(-c6ccc(OC)cc6)cc2C5)C(=O)N(CCC(C)C)C4=O)C3)cc1` gave a photoluminescence quantum yield (in C1CCOC1) of 0.59.

Consider `COc1ccc2n1[B-](F)(F)[N+]1=CC=CC1=C2c1ccccc1`, for which the photoluminescence quantum yield was determined as 0.02 (in CC#N); 0.01 (in CCCCCC); 0.01 (in CCOC(C)=O); 0.02 (in CO); 0.02 (in ClCCl).

`c1cc(-c2ccc(-n3c4ccccc4c4ccccc43)cc2)c2nsnc2c1`: the photoluminescence quantum yield (in ClCCl) was 0.68.

For `CC(C)[Si](C#Cc1c2c(=O)c3ccccc3c2c(C#C[Si](C(C)C)(C(C)C)C(C)C)c2c(=O)c3ccccc3c12)(C(C)C)C(C)C`, the photoluminescence quantum yield (in ClC(Cl)Cl) is 0.1.

`COc1ccc(/C=C(\C)c2nc3ccccc3s2)cc1` displayed a photoluminescence quantum yield (in C1CCCCC1) of 0.001.

In the case of `COCCC1=Cc2nc1ccc1[nH]c(cc1CCOC)c1nc(c(NC(=O)CCCC(=O)O)cc3[nH]c2cc3CCOC)C(CCOC)=C1`, the photoluminescence quantum yield (in Cc1ccccc1) stood at 0.15.

For `Cc1cc(C)c(B(c2c(C)cc(C)cc2C)N2c3ccccc3C(c3ccccc3)(c3ccccc3)c3ccccc32)c(C)c1`, the photoluminescence quantum yield reads like this: (in C1CCCCC1) 0.732; (in Cc1ccccc1) 0.974; (in ClCCl) 0.891.

For the compound `CN(C)c1ccc2c(c1)-c1ccccc1C2=O`, the photoluminescence quantum yield reads like this: (in C1CCCCC1) 0.14; (in CC#N) 0.083; (in CCO) 0.0081; (in c1ccccc1) 0.23.

Under “in ClCCl”, `CCCc1cc2c(s1)-c1cc3c(cc1NB2c1ccccc1)-c1sc(CCC)cc1B(c1ccccc1)N3` returned a photoluminescence quantum yield of 0.19.
